Assay results: article PMC10747602, “Dose Response, Dosimetric, and Metabolic Evaluations of Replacement PFAS Perfluoro-(2,5,8-trimethyl-3,6,9-trioxadodecanoic) Acid (HFPO-TeA)” (Toxics, 2023)
Values joined by “and” are separate entries in the source; they are usually repeats but may differ in a detail not shown here. Equal entries are not always repeated. Where two headings read alike, the source gives them in different places.

What was measured:
[1] = Ultracentrifugation plasma protein binding assay, human plasma; assay type: in vitro ADME; settings: both sexes, human
Method: (§1) Information on the chemicals and materials used in the plasma protein binding work can be found in Supplementary Text S10 and Table S3. Human and rodent plasma were evaluated for plasma protein binding using ultracentrifugation, as previously described. Working solutions of 3 mM of HFPO-DA, HFPO-TA, and HFPO-TeA were prepared separately in ethanol, with each working solution containing 3 mM of testosterone (Sigma-Aldrich; ≥98% pure) as a reference compound for assay performance. An aliquot of each stock solution (13.3 µL) was added to separate 15 mL tubes with 3.987 mL of plasma for a final assay concentration of 10 µM. The plasma solutions were incubated at 37 °C and 125 rpm for 60 min. One-hour stability samples (T60 min) were drawn in triplicate and diluted in four volumes of plasma ultrafiltrate. Aliquots (1 mL) from each plasma solution were drawn in triplicate and transferred to polycarbonate tubing. These samples underwent ultracentrifugation (Beckman OptimaMax; Beckman Coulter Inc., Brea, CA, USA) at 850,000× g for 4 h at 37 °C.
(§2) The remaining plasma solutions were returned for incubation at 37 °C and 125 rpm for an additional 4 h. Five-hour stability samples (T300 min) were then drawn in triplicate and diluted in four volumes of plasma ultrafiltrate. After ultracentrifugation, the aqueous fraction (AF) was collected by transferring the supernatant to a new tube and diluting in an equal volume of plasma for matrix matching. All samples were combined with 3 volumes of ice-cold ACN containing 16 ng/mL of ^13C3-HFPO-DA and 16 ng/mL of ^13C-Testosterone (Cambridge Isotope Laboratories; 98% pure). Samples were vigorously mixed, stored for 10 min at −20 °C, and then centrifuged at 12,000× g for 10 min at 4 °C. Supernatants were collected then stored at −70 °C prior to analysis.
(§3) Fraction unbound (fu) in plasma (fup) and percent stability calculations are detailed in Supplementary Text S10. Hepatic clearance, the fu in blood (fub) (fu in plasma adjusted for blood:plasma partitioning), and renal clearance were used to derive the steady-state concentration (Css) of each compound that will be used for in vitro–in vivo extrapolation (IVIVE). Renal clearance was calculated using the glomerular filtration rate (a species-dependent constant) and the fub. The Css calculation is detailed in Supplementary Text S11.
(§4) The gradient is available in Table S11. […]
(§5) Chemical stability in plasma was assessed
(§6) (F) Percent Stability = T300minutesT60minutes∗100

Human plasma = assay: as above; assay type: in vitro ADME; settings: 10000 nM; for Average Stability (T5hr/ T1hr): 37 °C; for Aqueous Fraction concentration: after ultracentrifugation; for Aqueous Fraction concentration / Fraction Unbound in plasma (fup) / Stability (T5hr/ T1hr) / Time 1 hr concentration / Time 5 hr concentration: replicates A-C
Method: as §1, §2, §3, §4, §5, §6

rat hepatocytes = assay: Hepatocyte metabolic stability (clearance) assay, rat hepatocytes; settings: for Negative Control Data, Heat Treated (HT), 15 min / Negative Control Data, Heat Treated (HT), 240 min: heat treated rat hepatocytes; for Negative Control Data, Heat Treated (HT), 15 min / Negative Control Data, Heat Treated (HT), 240 min / Negative Control Data, No cells (NC), 15 min / Negative Control Data, No cells (NC), 240 min / Ln Concentration, 0 min / Ln Concentration, 15 min / Ln Concentration, 30 min / Ln Concentration, 60 min / Ln Concentration, 120 min / Ln Concentration, 240 min / Linear Regression Best-Fit Slope (Ln concentration vs time): 1000 nM; for Negative Control Data, Heat Treated (HT), 15 min / Negative Control Data, Heat Treated (HT), 240 min / Negative Control Data, No cells (NC), 15 min / Negative Control Data, No cells (NC), 240 min: Ln concentration; for Negative Control Data, Heat Treated (HT), 15 min / Negative Control Data, Heat Treated (HT), 240 min / Negative Control Data, No cells (NC), 15 min / Negative Control Data, No cells (NC), 240 min / Ln Concentration, 0 min / Ln Concentration, 15 min / Ln Concentration, 30 min / Ln Concentration, 60 min / Ln Concentration, 120 min / Ln Concentration, 240 min: Rep 1-3; for Clin vitro: rat hepatocytes, 1 µM; for Ln Concentration, 0 min / Ln Concentration, 15 min / Ln Concentration, 30 min / Ln Concentration, 60 min / Ln Concentration, 120 min / Ln Concentration, 240 min / Linear Regression Best-Fit Slope (Ln concentration vs time): suspended rat hepatocytes; for Linear Regression Best-Fit Slope (Ln concentration vs time): time in min
Method: (§7) Information on the chemicals and materials used in the hepatocyte metabolic work can be found in Supplementary Text S9 and Table S3. In vitro evaluations of hepatocyte metabolic stability were performed in human and rat hepatocytes, as previously described. Briefly, pooled, cryopreserved hepatocyte suspensions were thawed, assessed for viability, and then diluted in William’s medium E containing dexamethasone and cell maintenance cocktail B to achieve a cell density of 50,000 cells/100 µL. The assay was started by adding hepatocyte suspensions to wells of 96-well polypropylene plates containing an equal volume of media with 2 µM of analyte (final assay concentration: 1 µM). Plates were placed in a 37 °C cell culture incubator (5% CO2) on a shaker set to 200 rpm. Time points assessed were T0, T15, T30, T60, T120, and T240 min. At each time point, the plates were removed from the shaker and the incubates were crashed with an equal volume of ice-cold ACN containing 1.2% FA and 16 ng/mL of ^13C3 -HFPO-DA. After chilling and centrifugation at 4122× g, the supernatants were transferred to new collection plates and stored at −70 °C until analysis for the parent compound on the Waters instrumentation described below. Immediately prior to analysis, samples were thawed, vortexed, and centrifuged at 4200× g, and then diluted 1:4 in 95:5 H2O/ACN with 2.5 mM of ammonium acetate. Negative controls, including no cell controls and metabolically inactivated hepatocytes, were run concurrently to assess the chemical stability over the time course.
(§8) Intrinsic clearance (Clint; hepatic clearance) calculations are detailed in Supplementary Text S9 [57].
(§9) Targeted, quantitative analysis of in vitro hepatocyte metabolic stability and plasma protein binding assay samples was conducted on a Waters Xevo-TQS micro mass spectrometer (Waters, Milford, MA, USA) ultra-high-performance liquid chromatography tandem mass spectrometry system (UPLC-MS/MS), modified with a PFAS analysis kit. Samples were analyzed in negative ion mode with UniSpray ionization. A CORTECS T3 column (Waters CORTECS, 3 × 100 mm, particle size 2.7 µm) was used for chromatographic separation with a flow rate of 0.6 mL/min and a temperature of 55 °C. Gradient elution was used with eluent A (95:5 H2O/ACN) and eluent B (95:5 ACN/H2O) with 2.5 mM of ammonium acetate. The gradient is available in Table S11. Additional details for MS parameters are found in Table S12 and monitored transitions are found in Table S13.
(§10) Table S2: Data processing parameters used with Sciex MarkerView 1.3.1.
(§11) Support ing Text S9: Hepatocyte Metabolic Stability Assay Materials, Chemicals, and Calculations
(§12) Pooled human and rat cryopreserved primary hepatocyte suspensions were both obtained from
(§13) BioIVT, a US Food and Drug Administration-licensed and inspected donor center, and produced using
(§14) non-transplantable tissue.
(§15) William’s E media, dexamet hasone (98% pure), and cell maintenance cocktail B were obtained from
(§16) Thermo Fisher Scientific (Waltham, MA, USA), the OptiThaw hepatocyte kit from Sekisui/Xenotech
(§17) (Tokyo, Japan), and the trypan blue s (Sekisui/ Xenotech, Tokyo, Japan) and the trypan blue solution from […]

human hepatocytes = assay: Hepatocyte metabolic stability (clearance) assay, human hepatocytes; settings: for Negative Control Data, No cells (NC), Ln Concentration / Negative Control Data, Heat Treated (HT), Ln Concentration / Ln Concentration / Linear Regression Best-Fit Slope (ln concentration vs time): 1000 nM; for Negative Control Data, No cells (NC), Ln Concentration / Negative Control Data, Heat Treated (HT), Ln Concentration / Ln Concentration: Rep 1-3; for Clin vitro / Negative Control Data, Heat Treated (HT), Ln Concentration / Ln Concentration / Linear Regression Best-Fit Slope (ln concentration vs time): human hepatocytes; for Clin vitro: 1 µM; for Linear Regression Best-Fit Slope (ln concentration vs time): time in min
Method: as §7, §8, §9, §10, §11, §12, §13, §14, §15, §16, §17

[2] = plasma, 10 µM, ultracentrifugation, read-out: Experimental fup (average fraction unbound in plasma)
[3] = pooled human plasma, 10000 nM, replicates A-C, read-out: Fraction Unbound in plasma (fup)

SMILES: O=C(O)C(F)(OC(F)(F)C(F)(F)C(F)(F)F)C(F)(F)F (stereo not shown) [HFPO-DA, perfluoro-2-methyl-3-oxahexanoic acid]
- fraction unbound at 4 h, 10 µM [1, 2]: 0.0098
- fraction unbound at 4 h, 10 µM [1, 3]: 0.0099
- Average Stability (T5hr/ T1hr) (Human plasma): 0.9905
- Aqueous Fraction concentration (Human plasma): 72.64 nM and 73.60 nM and 65.28 nM
- Fraction Unbound in plasma (fup) (Human plasma): 0.0095
- Stability (T5hr/ T1hr) (Human plasma): 0.9836 and 1.1438 and 0.8441
- Time 1 hr concentration (Human plasma): 7.4664 µM and 6.7536 µM and 7.8224 µM
- Time 5 hr concentration (Human plasma): 7.344 µM and 7.7248 µM and 6.6032 µM
- Negative Control Data, Heat Treated (HT), 15 min (rat hepatocytes): 4.4280 and 4.9483 and 5.2322
- Negative Control Data, Heat Treated (HT), 240 min (rat hepatocytes): 4.4378 and 4.5247 and 4.4650
- Negative Control Data, No cells (NC), 15 min (rat hepatocytes): 4.4280 and 4.9483 and 5.2322
- Negative Control Data, No cells (NC), 240 min (rat hepatocytes): 4.5318 and 4.4615 and 4.4489
- Clin vitro (rat hepatocytes): 0 µL/min/106 cells
- Ln Concentration, 0 min (rat hepatocytes): 4.5114 and 4.4660 and 4.4552
- Ln Concentration, 15 min (rat hepatocytes): 4.5017 and 4.4578 and 4.5341
- Ln Concentration, 30 min (rat hepatocytes): 4.4026 and 4.3249 and 4.4576
- Ln Concentration, 60 min (rat hepatocytes): 4.2774 and 4.4540 and 4.5417
- Ln Concentration, 120 min (rat hepatocytes): 4.3832 and 4.5273 and 4.3707
- Ln Concentration, 240 min (rat hepatocytes): 4.5604 and 4.5454 and 4.5567
- Linear Regression Best-Fit Slope (Ln concentration vs time) (rat hepatocytes): 0.0002303
- Negative Control Data, No cells (NC), Ln Concentration (human hepatocytes; 15 min): 4.4067 and 4.8800 and 5.2467
- Negative Control Data, No cells (NC), Ln Concentration (human hepatocytes; 240 min): 4.0348 and 4.0907 and 4.1657
- Clin vitro (human hepatocytes): 0 µL/min/106 cells
- Negative Control Data, Heat Treated (HT), Ln Concentration (human hepatocytes; 15 min): 4.4067 and 4.8800 and 5.2467
- Negative Control Data, Heat Treated (HT), Ln Concentration (human hepatocytes; 240 min): 4.6325 and 4.7203 and 4.8737
- Ln Concentration (human hepatocytes; time 0 min): 4.0945 and 4.2370 and 4.1735
- Ln Concentration (human hepatocytes; time 15 min): 4.1372 and 3.3218 and 3.8504
- Ln Concentration (human hepatocytes; time 30 min): 4.2468 and 4.1368 and 4.2711
- Ln Concentration (human hepatocytes; time 60 min): 4.1233 and 4.2750 and 4.2651
- Ln Concentration (human hepatocytes; time 120 min): 4.3345 and 4.3751 and 4.3328
- Ln Concentration (human hepatocytes; time 240 min): 4.9658 and 4.7177 and 4.8428
- Linear Regression Best-Fit Slope (ln concentration vs time) (human hepatocytes): 0.0006364

SMILES: O=C(O)C(F)(OC(F)(F)C(F)(OC(F)(F)C(F)(F)C(F)(F)F)C(F)(F)F)C(F)(F)F (stereo not shown) [HFPO-TA, perfluoro-(2,5-dimethyl-3,6-dioxanonanoic) acid]
- fraction unbound at 4 h, 10 µM [1, 2]: 0.0013
- fraction unbound at 4 h, 10 µM [1, 3]: 0.0013
- Average Stability (T5hr/ T1hr) (Human plasma): 1.0308
- Aqueous Fraction concentration (Human plasma): 8.96 nM and 9.6 nM and 15.04 nM
- Fraction Unbound in plasma (fup) (Human plasma): 0.0011 and 0.0015
- Stability (T5hr/ T1hr) (Human plasma): 0.7676 and 1.2763 and 1.0484
- Time 1 hr concentration (Human plasma): 8.7016 µM and 7.0496 µM and 9.7592 µM
- Time 5 hr concentration (Human plasma): 6.6792 µM and 8.9976 µM and 10.232 µM
- Negative Control Data, Heat Treated (HT), 15 min (rat hepatocytes): 4.1725 and 4.8897 and 5.4522
- Negative Control Data, Heat Treated (HT), 240 min (rat hepatocytes): 4.9004 and 4.9391 and 4.9107
- Negative Control Data, No cells (NC), 15 min (rat hepatocytes): 4.1725 and 4.8897 and 5.4522
- Negative Control Data, No cells (NC), 240 min (rat hepatocytes): 3.9230 and 4.2019 and 3.8754
- Clin vitro (rat hepatocytes): 0 µL/min/106 cells
- Ln Concentration, 0 min (rat hepatocytes): 4.5979 and 4.6454 and 4.5374
- Ln Concentration, 15 min (rat hepatocytes): 4.8189 and 4.7145 and 4.8521
- Ln Concentration, 30 min (rat hepatocytes): 4.7856 and 4.6050 and 4.6111
- Ln Concentration, 60 min (rat hepatocytes): 4.8438 and 4.7495 and 4.8027
- Ln Concentration, 120 min (rat hepatocytes): 4.6843 and 4.6317 and 4.5468
- Ln Concentration, 240 min (rat hepatocytes): 4.7393 and 4.9247 and 4.8505
- Linear Regression Best-Fit Slope (Ln concentration vs time) (rat hepatocytes): 0.0003164
- Negative Control Data, No cells (NC), Ln Concentration (human hepatocytes; 15 min): 4.3597 and 5.0085 and 5.1884
- Negative Control Data, No cells (NC), Ln Concentration (human hepatocytes; 240 min): 3.9371 and 3.9316 and 3.8367
- Clin vitro (human hepatocytes): 0 µL/min/106 cells
- Negative Control Data, Heat Treated (HT), Ln Concentration (human hepatocytes; 15 min): 4.3597 and 5.0085 and 5.1884
- Negative Control Data, Heat Treated (HT), Ln Concentration (human hepatocytes; 240 min): 4.9004 and 4.9391 and 4.9107
- Ln Concentration (human hepatocytes; time 0 min): 3.4977 and 3.5184 and 3.3762
- Ln Concentration (human hepatocytes; time 15 min): 4.0516 and 4.0675 and 3.8232
- Ln Concentration (human hepatocytes; time 30 min): 3.7647 and 3.6457 and 3.2925
- Ln Concentration (human hepatocytes; time 60 min): 4.1190 and 4.0115 and 3.2249
- Ln Concentration (human hepatocytes; time 120 min): 4.2452 and 3.9281 and 3.6055
- Ln Concentration (human hepatocytes; time 240 min): 4.5149 and 4.7648 and 4.7557
- Linear Regression Best-Fit Slope (ln concentration vs time) (human hepatocytes): 0.000858
